Patent US4882349A, “Pyrrolacetic amides having antiinflammatory activity” (priority 1982, dated 1989)

How the values were obtained:
[1] = test system: cough provoked by mechanical stimulation of the tracheal bifurcation mucosa; test: antitussive activity, mechanically provoked coughing; assay type: in vivo, albino Guinea-pigs; details: 1 h after administration
Experimental: The antitussive effect on albino Guinea-pigs weighing 300 g was evaluated using the method described by Y. Kase (Selected Pharmacological Testing Methods, p.363, Marcel Dekker Inc., New York, 1968). Each dose was tested in a group of animals with a Y cannula inserted into the trachea. In order to provoke coughing, the mucosa of the tracheal bifurcation was mechanically stimulated by insertion of a wild boar's hair through an opening in the cannula, while the other opening was connected to a kymograph to plot the amplitude and/or frequency. The reduction in the number of coughs was evaluated at one hour after administration of the compounds under examination by following the plottings for twenty minutes and comparing the response of the control animals.

[2] = test system: mucus secreted by the respiratory airway; test: antisecretory activity, respiratory mucus secretion; assay type: in vivo, albino male New Zealand rabbits; details: vs control group
Experimental: The experiment was carried out in accordance with the method described by Y. Kase (Folia Pharmacol. Jap. 73: 605, 1977) for the purpose of investigating whether or not the compounds under examination determine changes in the volume of the mucus secreted by the respiratory airway. Groups of four albino male New Zealand rabbits (mean weight: 2.5 kg) were used for testing each dose per single group. The animals were anesthetized with urethane (1.1 g/ks b.w.) via the intraperitoneal route and a Y cannula was inserted into the trachea. In order to stimulate mucous secretion a humidifier was connected to the cannula permitting the animals to spontaneously breathe air with 100% humidity at a constant temperature of 39° C. The secreted mucus was collected through another opening in the cannula and measured at three and six hours after administration of the compounds under examination or of the vehicle alone administered in the order of […] (controls). Calculation of the increase or decrease in mucous secretion was based upon the percentage differences between the groups treated with the compounds under examination and the control group. Table VII gives the percentage differences in mucous secretion, and the tested compounds with relative doses and routes of administration.

[3] = test system: phenyl-p-quinone-induced writhing (abdominal contractions); test: phenylquinone-induced writhing test (analgesic activity), compound given 30 min before phenyl-p-quinone; assay type: in vivo, male Wistar rats
Experimental: Male Wistar rats weighing 110±5 g were caged for 10 days at 22±1° C. and given a balanced diet with free access to water. Twenty-four hours before the experiment the animals were randomized into groups of 10 and fasted for 14 hours but with free access to water. Each dose was tested in 3 groups of rats. Thirty minutes following administration either orally or parenterally of the products to be tested and the vehicle alone (0.5% carboxymethyl-cellulose in physiological saline) in the control animals, each rat was given 2 ml of a 5% absolute ethanol aqueous solution containing 0.36% of phenyl-p-quinone (Sigma Chemical Company) in order to provoke writhings. Fifteen minutes after administration of phenyl-p-quinone the number of contractions were counted for 20 minutes. The inhibiting effect of the compounds under examination on the abdominal contractions induced by phenyl-p-quinone was calculated by the following formula: % protection= [formula]
Table V lists the tested compounds, doses, routes of administration and their efficacy expressed as percentage of protection, taking into account that phenyl-p-quinone was administered thirty minutes after the compounds.

[4] = test system: carrageenin-induced oedema; test: carrageenin-induced oedema test (anti-inflammatory activity); assay type: in vivo, albino male Wistar rats
Experimental: This effect was evaluated by means of an experimental model reproducing acute inflammation: for this purpose the carrageenin- induced oedema test was employed following the method described by C.
Albino male Wistar rats weighing 140-160 g were caged for 10 days at 22±1° C. and given a balanced diet and water ad libitum. Eighteen hours before the experiment the animals were randomized into groups of ten and fasted but with free access to water. Each dose was tested in three groups of rats. Each compound was given either orally, by gavage, or parenterally--intraperitoneal injection--administering as follows:
controls: 0.5% carboxymethylcellulose suspension in physiological saline, 10 ml/kg
treated: suspension of the compounds to be tested in the same vehicle and at the same volume (10 ml/kg) used for the controls at the doses specified below.
One hour after administration of the compounds and vehicle, in order to provoke the oedema for determining the protective effect of the substances under examination, each rat received, by subcutaneous injection into the plantar surface of the left paw, 0.1 ml of 1% sterile carrageenin suspension.

CCOC(=O)c1ccc(NC(=O)Cc2ccc(C(=O)c3ccc(C)cc3)n2C)cc1 [Compound 1-h, 1-methyl-5-p-toluoylpyrrole-2-N-(4-carboxyethyl-phenyl) acetamide]
% inhibition, cough amplitude ([1]; 50 mg/Kg i.p.): 20%
% inhibition, cough frequency ([1]; 50 mg/Kg i.p.): 18%
% inhibition, cough amplitude ([1]; 50 mg/Kg per os): 13%
% inhibition, cough frequency ([1]; 50 mg/Kg per os): 10%
% inhibition, cough amplitude ([1]; 75 mg/Kg i.p.): 29%
% inhibition, cough frequency ([1]; 75 mg/Kg i.p.): 35%
% inhibition, cough amplitude ([1]; 75 mg/Kg per os): 22%
% inhibition, cough frequency ([1]; 75 mg/Kg per os): 18%
% inhibition, cough amplitude ([1]; 100 mg/Kg i.p.): 45%
% inhibition, cough frequency ([1]; 100 mg/Kg i.p.): 53%
% inhibition, cough amplitude ([1]; 100 mg/Kg per os): 40%
% inhibition, cough frequency ([1]; 100 mg/Kg per os): 50%
% difference in mucus secretion ([2]; 50 mg/Kg i.p., 3 h): -8%
% difference in mucus secretion ([2]; 50 mg/Kg i.p., 6 h): -3%
% difference in mucus secretion ([2]; 50 mg/Kg per os, 3 h): -5%
% difference in mucus secretion ([2]; 50 mg/Kg per os, 6 h): 0.0%
% difference in mucus secretion ([2]; 75 mg/Kg i.p., 3 h): -26%
% difference in mucus secretion ([2]; 75 mg/Kg i.p., 6 h): -20%
% difference in mucus secretion ([2]; 75 mg/Kg per os, 3 h): -19%
% difference in mucus secretion ([2]; 75 mg/Kg per os, 6 h): -16%
% difference in mucus secretion ([2]; 100 mg/Kg i.p., 3 h): -41%
% difference in mucus secretion ([2]; 100 mg/Kg i.p., 6 h): -38%
% difference in mucus secretion ([2]; 100 mg/Kg per os, 3 h): -39%
% difference in mucus secretion ([2]; 100 mg/Kg per os, 6 h): -32%
% Protection ([3]; 5 mg/Kg i.p.): 18.0%
% Protection ([3]; 5 mg/Kg per os): 16.2%
% Protection ([3]; 10 mg/Kg i.p.): 44.0%
% Protection ([3]; 10 mg/Kg per os): 37.9%
% Protection ([3]; 20 mg/Kg i.p.): 79.0%
% Protection ([3]; 20 mg/Kg per os): 70.1%
oedema % inhibition ([4]; 25 mg/Kg per os, 2 h): 28.9%
oedema % inhibition ([4]; 25 mg/Kg per os, 4 h): 30.1%
oedema % inhibition ([4]; 25 mg/Kg per os, 6 h): 29.0%
oedema % inhibition ([4]; 25 mg/Kg per os, 24 h): 8.3%
oedema % inhibition ([4]; 25 mg/Kg per os, 48 h): 0.0%
oedema % inhibition ([4]; 25 mg/Kg per os, 72 h): 0.0%
oedema % inhibition ([4]; 25 mg/Kg, Table IV (route not given), 2 h): 30.1%
oedema % inhibition ([4]; 25 mg/Kg, Table IV (route not given), 4 h): 27.9%
oedema % inhibition ([4]; 25 mg/Kg, Table IV (route not given), 6 h): 29.0%
oedema % inhibition ([4]; 25 mg/Kg, Table IV (route not given), 24 h): 13.0%
oedema % inhibition ([4]; 25 mg/Kg, Table IV (route not given), 48 h): 0.0%
oedema % inhibition ([4]; 25 mg/Kg, Table IV (route not given), 72 h): 0.0%
oedema % inhibition ([4]; 50 mg/Kg per os, 2 h): 48.9%
oedema % inhibition ([4]; 50 mg/Kg per os, 4 h): 49.0%
oedema % inhibition ([4]; 50 mg/Kg per os, 6 h): 47.1%
oedema % inhibition ([4]; 50 mg/Kg per os, 24 h): 9.9%
oedema % inhibition ([4]; 50 mg/Kg per os, 48 h): 0.0%
oedema % inhibition ([4]; 50 mg/Kg per os, 72 h): 0.0%
oedema % inhibition ([4]; 50 mg/Kg, Table IV (route not given), 2 h): 50.2%
oedema % inhibition ([4]; 50 mg/Kg, Table IV (route not given), 4 h): 51.0%
oedema % inhibition ([4]; 50 mg/Kg, Table IV (route not given), 6 h): 47.0%
oedema % inhibition ([4]; 50 mg/Kg, Table IV (route not given), 24 h): 15.1%
oedema % inhibition ([4]; 50 mg/Kg, Table IV (route not given), 48 h): 0.0%
oedema % inhibition ([4]; 50 mg/Kg, Table IV (route not given), 72 h): 0.0%
oedema % inhibition ([4]; 100 mg/Kg per os, 2 h): 66.9%
oedema % inhibition ([4]; 100 mg/Kg per os, 4 h): 67.1%
oedema % inhibition ([4]; 100 mg/Kg per os, 6 h): 69.0%
oedema % inhibition ([4]; 100 mg/Kg per os, 24 h): 22.0%
oedema % inhibition ([4]; 100 mg/Kg per os, 48 h): 13.0%
oedema % inhibition ([4]; 100 mg/Kg per os, 72 h): 0.0%
oedema % inhibition ([4]; 100 mg/Kg, Table IV (route not given), 2 h): 70.1%
oedema % inhibition ([4]; 100 mg/Kg, Table IV (route not given), 4 h): 68.9%
oedema % inhibition ([4]; 100 mg/Kg, Table IV (route not given), 6 h): 66.0%
oedema % inhibition ([4]; 100 mg/Kg, Table IV (route not given), 24 h): 19.0%
oedema % inhibition ([4]; 100 mg/Kg, Table IV (route not given), 48 h): 10.0%
oedema % inhibition ([4]; 100 mg/Kg, Table IV (route not given), 72 h): 0.0%
